BigSolDB 2.1

NC(=O)N1c2ccccc2CC(=O)c2ccccc21
solubility (mole fraction)
Details	in THF	in acetone	in acetonitrile	in ethanol	in isopropanol	in methanol	in n-butanol	in n-propanol
288.15 K	0.00204	0.00105	0.000641	0.000273	0.000151	0.000534	0.000251	0.000245
293.15 K	0.00217	0.0012	0.000751	0.000322	0.000187	0.000619	0.000309	0.000301
298.15 K	0.00241	0.00134	0.000839	0.000383	0.000217	0.000759	0.000355	0.000358
303.15 K	0.00266	0.00154	0.00103	0.000488	0.000299	0.000907	0.000479	0.000475
308.15 K	0.00308	0.00182	0.00122	0.000617	0.000413	0.00111	0.000617	0.000616
